Source: patent US11084800B2 (Achillion Pharmaceuticals, Inc., priority 2017, dated 2021)
Read-outs that look alike come from different tables or passages of the source.

Target: Human Factor D (Homo sapiens (Human), UniProt P00746)
Assay: Human Factor D Assay
Type: biochemical
Outline: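 Thioester substrate Z-L-Lys-SBz (100 μM) with Ellman's reagent DTNB (100 μM) reports activity of 80 nM human serum-derived enzyme, kinetically at 405 nm over 30 min. Compound preincubated 5 min, room temperature, pH 7.5 Tris/1 M NaCl; IC50 by nonlinear fit of rates.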

Human Factor D, sequence (P00746 26-253): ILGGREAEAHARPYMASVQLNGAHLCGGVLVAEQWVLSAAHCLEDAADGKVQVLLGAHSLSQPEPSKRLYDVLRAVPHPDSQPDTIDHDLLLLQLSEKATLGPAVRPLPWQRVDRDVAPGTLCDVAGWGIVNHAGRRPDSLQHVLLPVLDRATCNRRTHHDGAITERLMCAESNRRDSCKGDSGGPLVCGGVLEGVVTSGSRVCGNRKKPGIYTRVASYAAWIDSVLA

Compound	IC50 (Factor D inhibition, assay of Example 10, read-out: IC5 (Stars)) [µM]	IC50 (Table 6, Factor D 80 nM, substrate Z-L-Lys-SBz, read-out: IC50) [µM]
CC(=O)c1nn(CC(=O)N2[C@H](C(=O)NCCN3CCOCC3)C[C@@]3(C)C[C@@H]23)c2c(C)cc(-c3cnc(C)nc3)cc12 [Compound 607, (1R,3S,5R)-2-(2-(3-acetyl-7-methyl-5-(2-methylpyrimidin-5-yl)-1H-indazol-1-yl)acetyl)-5-methyl-N-(2-morpholinoethyl)-2-azabicyclo[3.1.0]hexane-3-carboxamide]	1 to 10	–
(1R,3S,5S)-2-(2-(3-Acetyl-5-(2-methylpyrimidin-5-yl)-1H-indazol-1-yl)acetyl)-N-(6-bromo-3-(methoxymethyl)pyridin-2-yl)-5-(methoxymethyl)-2-azabicyclo[3.1.0]hexane-3-carboxamide [Compound 49]	–	< 1
